Data from patent publication US20080009478A1, “Benzazepine Derivatives and Methods of Prophylaxis or Treatment of 5Ht2c Receptor Associated Diseases” (Arena Pharmaceuticals, Inc., priority 2003, published 2008).
Where a name gives a salt, the structure may show the parent alone.

Assays:
human 5HT2C receptor = target: T1, human 5HT2C receptor (Homo sapiens, UniProt P28335); experiment: Intracellular IP3 Accumulation Assay; assay type: cell-based; conditions: HEK293 cells transfected with human 5HT2C receptor; averages of at least two trials; read-out: 5-HT2C (IC50) IP Accumulation Assay
T1 construct: expressed in transfected cells; host or cells: HEK293
T1 sequence (P28335 33-458): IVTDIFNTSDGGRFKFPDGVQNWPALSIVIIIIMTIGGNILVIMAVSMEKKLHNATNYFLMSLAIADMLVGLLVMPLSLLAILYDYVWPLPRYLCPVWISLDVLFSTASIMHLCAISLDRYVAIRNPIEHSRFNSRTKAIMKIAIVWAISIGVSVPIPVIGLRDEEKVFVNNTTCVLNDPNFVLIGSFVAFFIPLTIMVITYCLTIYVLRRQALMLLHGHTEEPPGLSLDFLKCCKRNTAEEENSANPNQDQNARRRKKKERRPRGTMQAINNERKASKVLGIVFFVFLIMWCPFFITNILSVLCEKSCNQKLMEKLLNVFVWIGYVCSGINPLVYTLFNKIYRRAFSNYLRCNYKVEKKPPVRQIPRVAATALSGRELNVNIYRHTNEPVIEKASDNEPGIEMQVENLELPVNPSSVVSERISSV
Description: Intracellular IP3 Accumulation Assay
HEK293 cells were transfected in 15 cm sterile dishes with or without (control) 16 ug of human 5HT2C receptor cDNA [Saltzman, A. G., et al. Biochem. Biophys. Res. Commun. 181, 1469-1478 (1991)] using 25 ul of lipofectamine. Cells were then incubated for 3-4 hours at 37° C./5% CO2 and then transfection media was removed and replaced with 100 μL of DMEM. Cells were then plated onto […] sterile dishes. The next day cells were plated into 96 well PDL microtiter plates at a density of 55K/0.2 ml. Six hours latter, media was exchanged with [^3H]inositol (0.25 μCi/well) in inositol free DMEM and plates were incubated at 37° C./5% CO2 overnight. The next day, wells were aspirated and 200 μl of DMEM containing test compound, 10 μM pargyline, and 10 mM LiCl was added to appropriate wells. Plates were then incubated at 37° C./5% CO2 for three hours followed aspiration and by addition of fresh ice cold stop solution (1M KOH, 19 mM Na-borate, 3.8 mM EDTA) to each well. Plates were kept on ice for 5-10 min and the wells were neutralized by addition of 200 μL of fresh ice cold neutralization solution (7.5% HCl). Plates were then frozen until further processing is desired. The lysate was then transferred into 1.5 mL Eppendorf tubes and 1 mL of chloroform/methanol (1:2) was added/tube. […]

[1] = tested on: serotonin 5HT2A receptors; conditions: 3T3 fibroblasts expressing 5HT2A; cited from earlier work
[2] = tested on: amyloid precursor protein (APPs); conditions: guinea pigs, in vivo, repeat administration; cited from earlier work

For `COc1cc2c(cc1Cc1ccccc1)C(C)CNCC2` (racemic) [Example 14, (R,S)-8-Benzyl-7-methoxy-1-methyl-2,3,4,5-tetrahydro-1H-benzo[d]azepine hydrochloride], the IC50 (human 5HT2C receptor) was 7 nM.

In the case of `NCCc1c[nH]c2ccc(O)cc12` [Example 5-HT, 5-hydroxytryptamine], the “Maximal stimulation of APPs secretion” value [1] is listed as “about 4 fold”.

Work on `C[C@@H]1CNCCc2cc(Cc3ccccc3)c(Cl)cc21` [Example 13, (S)-7-Benzyl-8-chloro-1-methyl-2,3,4,5-tetrahydro-1H-benzo[d]azepine hydrochloride] yielded an IC50 (human 5HT2C receptor) of 30 nM.

In the case of `C[C@H](N)Cc1cccc(C(F)(F)F)c1` [dexnorfenfluramine], the “amyloid precursor protein (APPs) secretion” value [2] is listed as “stimulated” and the “levels of Aβ production” value [2] is listed as “reducing”.
